According to patent US5498522A, “Methods for the use of spermidine/spermine N^1 -acetyltransferase as a prognostic indicator and/or a tumor response marker” (priority 1993, dated 1996):

How the values were obtained:
[1] = test system: MALME-3 human melanoma xenografts; assay: antitumor response against MALME-3 human melanoma xenografts in mice; assay type: in vivo; details: for suppression of tumor growth after cessation of treatment: every 8 hours for 6 days, most effective dose; for % T/C (tumor growth suppression) / Regrowth Delay (time for median tumor volume to reach 200 mm^3): maximally tolerated dose
Method: b. Anticancer effects of polyamine analog therapy are determined by assessing the antiproliferative activity on the treated solid tumor by measuring one or more responses including tumor growth suppression, tumor regression, or repression of regrowth. Tumors were measured in three dimensions and tumor volume was calculated according to the formula:
(§1) […] where 1 represents length; w--width; and h--height. Tumor sizes were monitored 2 times/week until the median volume (V=0.4(a^2 ×b) where a is the smaller of the two perpendicular tumor diameters). As an indication of drug toxicity, animal weights were also recorded at the time of tumor volume measurement. Statistical analyses were performed on mouse tumor size and weight parameters by using the Mann-Whitney test.
Tumor growth suppression was measured by plotting the mean tumor volume versus the number of days post-inoculation with polyamine analog (growth curve analyses). Suppression is determined by comparison with the growth of untreated tumors (%T/C). More specifically,: %T/C is (treated tumor volume minus pretreatment volume) divided by (control tumor volume minus pretreatment volume)×100. Typically this is measured either when the control tumor volume reaches 1000 mm^3, or at the last day of treatment.
Tumor regression is measured as a percentage representing the average percentage of decrease in tumor volume from the largest pretreatment volume value.
Repression of regrowth is represented as regrowth delay, determined as the number of days following cessation of treatment when median group tumor volume exceeds 200 mm^3 (an arbitrary indication of regrowth which was determined statistically).
For the in-vivo treatment, 10^7 cultured MALME-3 melanoma cells were injected subcutaneously into 20 gram female nude athymic mice. After four in-vivo passages, tumor was removed and 40-50 mm^3 fragments were selected for implantation into mice via subcutaneous trocar implantation. Mice developing palpable tumors of a similar size were divided into different treatment groups comprising mice per group. Following treatment of the mice with a dosage approaching the maximally tolerated dose of the respective bis-ethyl spermine analog, the tumor cells comprising the human xenograft were removed and assayed for SSAT induction. […] Also indicated in Table 1, the level of SSAT induction in-vivo by BESPM was less than 20 fold that of BEHSPM, and the level of SSAT induction in-vivo by BENSPM was about 6 fold greater than that of BESPM. Thus, a conclusion from the results depicted in Table 1 is the rank order in effectiveness of the his-ethyl spermine analogs to induce SSAT levels in-vitro correlated well with their effectiveness to induce SSAT levels in-vivo.
The in-vivo antitumor activities of BESPM, BEHSPM, and BENSPM, were compared against various human xenografts in nude athymic mice. Cultured human tumor cells were first passaged several times in female HSD nude athymic mice. Fragments of resultant tumor were implanted into mice via subcutaneous trocar implantation. Mice of different treatment groups were treated with one or more of the three bis-ethyl spermine analogs BESPM, BEHSPM, and BENSPM. Anti-proliferative activity was monitored by antitumor responses including tumor growth suppression, tumor regression, or repression of regrowth.
As illustrated in Table 1 with MALME-3 human melanoma cells, the rank order effectiveness of three polyamine analogs in inducing SSAT levels both in-vitro and in-vivo were BENSPM>BESPM>BEHSPM, with substantial differences in induction between them. The same three polyamine analogs were analyzed for their effectiveness in inducing a potent antitumor response in-vivo. Mice developing palpable tumors of a similar size were divided into different treatment groups comprising 5 mice per treatment group, and 10 control mice per treatment group. […]

[2] = tolerated dose / host toxicity in xenograft-bearing mice; details: mouse, in vivo, every 8 hours for 6 days, read-out: tolerated dose (higher doses were toxic)
Method: as §1
As illustrated in Table 1 with MALME-3 human melanoma cells, the rank order effectiveness of three polyamine analogs in inducing SSAT levels both in-vitro and in-vivo were BENSPM>BESPM>BEHSPM, with substantial differences in induction between them. The same three polyamine analogs were analyzed for their effectiveness in inducing a potent antitumor response in-vivo. Mice developing palpable tumors of a similar size were divided into different treatment groups comprising 5 mice per treatment group, and 10 control mice per treatment group. The treatment groups, and treatment regimen. per group, were as follows: BEHSPM: administered every 8 hours for a 6 day period with group 1 receiving 1.5 mg/kg; group 2 receiving 3.0 mg/kg; and group 3 receiving 6.0 mg/kg.
BESPM: administered every 8 hours for a 6 day period with group 1 receiving 10 mg/kg; group 2 receiving 20 mg/kg; and group 3 receiving 40 mg/kg.
BENSPM: administered every 8 hours for a 6 day period with group 1 receiving 20 mg/kg; group 2 receiving 40 mg/kg; and group 3 receiving 80 mg/kg.
Note that the highest drug dosages for each analog approach the maximally tolerated dosage for that particular analog (for example, BEHSPM at 6 mg/kg; BESPM at 20 mg/kg; and BENSPN at 80 mg/kg were tolerated by treated animals, whereas higher doses were toxic). Tumor cells comprising the human xenograft were removed from two animals of each group and assayed for SSAT induction. […]

[3] = MALME-3 xenograft, 40 mg/kg every 8 hours for 5 days

CCNCCCNCCCNCCCNCC [BENSPM, N^1,N^11 -bis(ethyl)norspermine]
% T/C at 1 g ([1]; MALME-3M, BENSPM at 80 mg/kg): < 0% | Tumor Regression ([1]; MALME-3M, BENSPM at 80 mg/kg): Present | Regrowth Delay ([1]; MALME-3M, BENSPM at 80 mg/kg, dt 13 days): > 4.8 × dt | No Regrowth ([1]; MALME-3M, BENSPM at 80 mg/kg, for duration of experiment): 2/5 | lack of regrowth (FIG. 6) [1, 3]: two mice examined of the remaining five mice treated | regrowth delay (FIG. 6) [1, 3]: significant regrowth delay | tumor regression (FIG. 6) [1, 3]: showed tumor regression | suppression of tumor growth after cessation of treatment ([1]; MALME-3 xenograft): 40 days | % T/C (tumor growth suppression) ([1]; MALME-3 xenograft): 10% | Regrowth Delay (time for median tumor volume to reach 200 mm^3) ([1]; MALME-3 xenograft): 37 days | antitumor activity ([1]; MALME-3 xenografts): most effective of the three | apparent curing of xenografts on retreatment ([1]; MALME-3 xenografts, retreatment 2 weeks later): about 20% | MTD at 144 h [2]: 80 mg/kg

CCNCCCCNCCCCNCCCCNCC [BEHSPM, N^1,N^14 -bis(ethyl)homospermine]
suppression of tumor growth after cessation of treatment ([1]; MALME-3 xenograft): 18 days | % T/C (tumor growth suppression) ([1]; MALME-3 xenograft): 43% | Regrowth Delay (time for median tumor volume to reach 200 mm^3) ([1]; MALME-3 xenograft): 14 days | antitumor activity ([1]; MALME-3 xenografts): less effective than BESPM | MTD at 144 h [2]: 6 mg/kg

CCNCCCNCCCCNCCCNCC [BESPM, N^1,N^12-bis(ethyl)spermine]
suppression of tumor growth after cessation of treatment ([1]; MALME-3 xenograft): 30 days | % T/C (tumor growth suppression) ([1]; MALME-3 xenograft): 34% | Regrowth Delay (time for median tumor volume to reach 200 mm^3) ([1]; MALME-3 xenograft): 27 days | antitumor activity ([1]; MALME-3 xenografts): significant antitumor activity | MTD at 144 h [2]: 20 mg/kg
